≈ marks a conversion by molar mass, not a printed value. Calls of active or inactive are those of the source. The rule behind the calls is not given here.
Columns and labels:
[1] = system: Athelia rolfsii; test: Antifungal activity against Athelia rolfsii assessed as growth inhibition at 6.9 x 10^-2 M after 3 days by paper disk assay relative to control; type: functional; conditions: Agroathelia rolfsii, 72 h; read-out: GI
[2] = system: Athelia rolfsii; test: Antifungal activity against Athelia rolfsii assessed as growth inhibition after 3 days; type: functional; conditions: Agroathelia rolfsii, 72 h
[3] = system: Athelia rolfsii; test: Antifungal activity against Athelia rolfsii assessed as mycelial growth inhibition at 246 ug/mL after 3 days; type: functional, organism-based; conditions: Agroathelia rolfsii

In the case of `CC(=O)CCCc1cccc(=O)o1` [VIRIDEPYRONONE], the inhibition of growth at 69000 µM [1] is reported as 48%, the MIC [2] is reported as 196 µg/mL (≈ 1090 µM) and the “growth inhibition (GI)” value [3] is reported as “Active”.

Source: ChEMBL document CHEMBL3045774, “Viridepyronone, a new antifungal 6-substituted 2H-pyran-2-one produced by Trichoderma viride” (2003)
